The values that follow come from ChEMBL document CHEMBL5154940, “Effect of Chiral Purity on Adjuvanticity of Archaeol-Based Glycolipids” (J Med Chem, 2022).

The species entered for series [1] is Mus musculus. Kind of series: Immuno-adjuvant activity in C57BL/6NCrl mouse assessed as increase in anti-ova total IgG level in serum at 0.3 to 1 mg in presence of 10 ug ovalbumin and measured 20 days post immunization by ELISA. It counts as functional, organism-based. Particulars: dose 0.3-1 mg, time 20.0 day. (ELISA stands for enzyme-linked immunosorbent assay.)

For series [2], the system named is Mus musculus. Kind of series: Immuno-adjuvant activity in C57BL/6NCrl mouse assessed as increase in anti-ova total IgG level in serum at 0.3 to 1 mg administered on day 0 and as booster dose on day 21 in presence of 10 ug ovalbumin measured on day 28 by ELISA. In kind it is functional, organism-based. The note with it: dose 0.3-1 mg, time 28.0 day.
In series [3] the test system is Mus musculus. The experiment in a line: Immuno-adjuvant activity in C57BL/6NCrl mouse assessed as increase in anti-ova total IgG level in serum at 0.3 to 1 mg administered on day 0 and as booster dose on day 21 in presence of 1 ug ovalbumin measured on day 28 by ELISA. It counts as functional, organism-based. The note with it: dose 0.3-1 mg, time 28.0 day.
The species named for series [4] is Mus musculus. Kind of series: Immuno-adjuvant activity in C57BL/6NCrl mouse assessed as increase in IFN-gamma spot forming cells measured per 10^6 splenocytes at 0.3 mg in presence of 10 ug ovalbumin incubated for 20 hrs with SIINFEKL peptide stimulant and measured on day 28 by AEC chromogen based ELISPOT analysis. In kind it is functional.
The species entered for series [5] is Mus musculus. Kind of series: Immuno-adjuvant activity in C57BL/6NCrl mouse assessed as increase in IFN-gamma spot forming cells measured per 10^6 splenocytes at 1 mg in presence of 1 ug ovalbumin incubated for 20 hrs with SIINFEKL peptide stimulant and measured on day 28 by AEC chromogen based ELISPOT analysis. In kind it is functional.
A short description of series [6]: Cytotoxicity against mouse CD8-positive T cells in Ova- immunized C57BL/6NCrl mouse assessed as reduction in cell viability at 1 mg administrated on day 0 and as booster dose on day 21 followed by injection of cells to immunized mouse on day 27 in presence of 10 ug ovalbumin and measured on day 28 by flow cytometry analysis. The note with it: 672 h, time 28 day. It counts as toxicity, cell-based. (A flow cytometer gives signals particle by particle.)

A short description of series [7]: Cytotoxicity against mouse CD8-positive T cells in Ova- immunized C57BL/6NCrl mouse assessed as reduction in cell viability at 0.3 mg administrated on day 0 and as booster dose on day 21 followed by injection of cells to immunized mouse on day 27 in presence of 10 ug ovalbumin and measured on day 28 by flow cytometry analysis. Particulars: 672 h, time 28 day. In kind it is toxicity, cell-based.

For series [8], the species on record is Mus musculus. Kind of series: Immuno-adjuvant activity in C57BL/6NCrl mouse assessed as increase in anti-ova total IgG level in serum at 1 mg in presence of 1 ug ovalbumin and measured 20 days post immunization by ELISA. Particulars: time 20.0 day. It counts as functional, organism-based.
Series [9] is filed under the species Mus musculus. Kind of series: Immuno-adjuvant activity in C57BL/6NCrl mouse assessed as increase in IFN-gamma spot forming cells measured per 10^6 splenocytes at 1 mg in presence of 10 ug ovalbumin incubated for 20 hrs with SIINFEKL peptide stimulant and measured on day 28 by AEC chromogen based ELISPOT analysis. In kind it is functional.
Series [10] in a line: Cytotoxicity against mouse CD8-positive T cells in Ova- immunized C57BL/6NCrl mouse assessed as reduction in cell viability at 1 mg administrated on day 0 and as booster dose on day 21 followed by injection of cells to immunized mouse on day 27 in presence of 1 ug ovalbumin and measured on day 28 by flow cytometry analysis. In kind it is toxicity, cell-based. Particulars: 672 h, time 28 day.

Activity calls are given as the source filed them. No cut-off for these calls is given here.

On to `CC(C)CCC[C@@H](C)CCC[C@@H](C)CCC[C@@H](C)CCOC[C@H](CO[C@@H]1O[C@H](CO)[C@@H](O[C@@H]2O[C@H](COS(=O)(=O)[O-])[C@H](O)[C@H](O)[C@H]2O)[C@H](O)[C@H]1O)OCC[C@H](C)CCC[C@H](C)CCC[C@H](C)CCCC(C)C.[Na+]`, for which the result in the series filed under Mus musculus [1], in the series with Mus musculus [2], in the series with Mus musculus [3] and in the series listed under Mus musculus [8] was Active. The Activity in the series filed under Mus musculus [4] was 6; in the series listed under Mus musculus [5], 6; in series [6], “Toxic”; in series [7], “Toxic”; in the series listed under Mus musculus [9], 40; in [10], “Toxic”.

Turning to `CC(C)CCCC(C)CCCC(C)CCCC(C)CCOCC(CO[C@@H]1O[C@H](CO)[C@@H](O[C@@H]2O[C@H](COS(=O)(=O)[O-])[C@H](O)[C@H](O)[C@H]2O)[C@H](O)[C@H]1O)OCCC(C)CCCC(C)CCCC(C)CCCC(C)C.[Na+]` (stereo not given in full), the outcome in the series filed under Mus musculus [1], in the series with Mus musculus [2], with Mus musculus [3] and in the series listed under Mus musculus [8] was Active. The Activity in the series filed under Mus musculus [4] is recorded as 6; in the series listed under Mus musculus [5], 6; in [6], “Toxic”; in series [7] it was “Toxic”; in the series listed under Mus musculus [9], 40; in series [10], “Toxic”.

Consider `CC(C)CCC[C@@H](C)CCC[C@@H](C)CCC[C@@H](C)CCOC[C@@H](CO[C@@H]1O[C@H](CO)[C@@H](O[C@@H]2O[C@H](COS(=O)(=O)[O-])[C@H](O)[C@H](O)[C@H]2O)[C@H](O)[C@H]1O)OCC[C@H](C)CCC[C@H](C)CCC[C@H](C)CCCC(C)C.[Na+]`, for which the result in the series listed under Mus musculus [1], with Mus musculus [2], in the series on Mus musculus [3] and in the series listed under Mus musculus [8] was Active. The Activity is given as 6 in the series filed under Mus musculus [4]; 6 in the series listed under Mus musculus [5]; “Toxic” in series [6]; “Toxic” in series [7]; 40 in the series listed under Mus musculus [9]; “Toxic” in series [10].
